According to publication PMC4968608 (Cancer Science, 2016):
Marks after values point to notes of the source that are not given here.

Columns and labels:
[1] = system: Japanese patients with advanced solid tumors; experiment: Dose-limiting toxicity and MTD determination, part 1; assay type: in vivo, human; details: cycle 1; for DLT: stage IV, person
[2] = Plasma palbociclib concentrations with letrozole, part 2; assay type: in vivo, human; details: palbociclib 125 mg + letrozole 2.5 mg once daily, multiple doses, part 2, day 15 of cycles 1 and 2
[3] = system: Japanese patients with advanced solid tumors; experiment: Treatment-related adverse events, part 1; assay type: in vivo, human; details: for Any AE (treatment-related), All grades / Any AE (treatment-related), Grade 3/4 / Blood creatinine increased (treatment-related AE), All grades / Blood creatinine increased (treatment-related AE), Grade 3/4 / Diarrhea (treatment-related AE), All grades / Diarrhea (treatment-related AE), Grade 3/4 / Fatigue (treatment-related AE), All grades / Fatigue (treatment-related AE), Grade 3/4 / Lymphocytes decreased (treatment-related AE), All grades / Lymphocytes decreased (treatment-related AE), Grade 3/4 / Neutropenia (treatment-related), all grades / Neutropenia (treatment-related), grade 3/4 / Neutrophils decreased (treatment-related AE), All grades / Neutrophils decreased (treatment-related AE), Grade 3/4 / Platelets decreased (treatment-related AE), All grades / Platelets decreased (treatment-related AE), Grade 3/4 / WBCs decreased (treatment-related AE), All grades / WBCs decreased (treatment-related AE), Grade 3/4: part 1, n = 6
[4] = system: estrogen receptor‐positive (ER+) luminal breast cancer cell lines; details: cited from earlier work
[5] = Plasma palbociclib pharmacokinetics, part 1; assay type: in vivo, human; details: for AUC(0-t): geometric mean (geometric %CV); for half-life: t½, arithmetic mean ± SD
advanced solid tumors = experiment: Antitumor activity; assay type: in vivo, human
[6] = Trough plasma letrozole concentrations, part 2; assay type: in vivo, human
[7] = 100 mg, part 1, patient: breast cancer (first listed)

CC(=O)c1c(C)c2cnc(Nc3ccc(N4CCNCC4)cn3)nc2n(C2CCCC2)c1=O [Palbociclib]
Patients with dose-limiting toxicity per dose level ([1]; 100 mg and 125 mg once daily, part 1, n = 6 each): one patient per dose level
DLT ([1]; 100 mg once daily, patient: colon cancer): None
DLT ([1]; 100 mg once daily, patient: rectal cancer): None
DLT ([1]; 125 mg once daily, patient: esophageal cancer): None
DLT ([1]; 125 mg once daily, patient: fibroma): None
DLT ([1]; 125 mg once daily, patient: rectal cancer): None
Plasma palbociclib concentration, Predose [Ctrough], geometric mean [2]: 88.5 ng/mL
Any AE (treatment-related), All grades ([3]; 100 mg once daily): 6 (100) n (%)
Any AE (treatment-related), Grade 3/4 ([3]; 100 mg once daily): 4 (67) n (%)
Blood creatinine increased (treatment-related AE), All grades ([3]; 100 mg once daily): 2 (33) n (%)
Blood creatinine increased (treatment-related AE), Grade 3/4 ([3]; 100 mg once daily): 0 (0) n (%)
Diarrhea (treatment-related AE), All grades ([3]; 100 mg once daily): 0 (0) n (%)
Diarrhea (treatment-related AE), Grade 3/4 ([3]; 100 mg once daily): 0 (0) n (%)
Fatigue (treatment-related AE), All grades ([3]; 100 mg once daily): 0 (0) n (%)
Fatigue (treatment-related AE), Grade 3/4 ([3]; 100 mg once daily): 0 (0) n (%)
Lymphocytes decreased (treatment-related AE), All grades ([3]; 100 mg once daily): 1 (17) n (%)
Lymphocytes decreased (treatment-related AE), Grade 3/4 ([3]; 100 mg once daily): 1 (17) n (%)
Neutropenia (treatment-related), all grades ([3]; 100 mg once daily): 83%
Neutropenia (treatment-related), grade 3/4 ([3]; 100 mg once daily): 67%
Neutrophils decreased (treatment-related AE), All grades ([3]; 100 mg once daily): 5 (83) n (%)
Neutrophils decreased (treatment-related AE), Grade 3/4 ([3]; 100 mg once daily): 4 (67) n (%)
Platelets decreased (treatment-related AE), All grades ([3]; 100 mg once daily): 1 (17) n (%)
Platelets decreased (treatment-related AE), Grade 3/4 ([3]; 100 mg once daily): 0 (0) n (%)
WBCs decreased (treatment-related AE), All grades ([3]; 100 mg once daily): 4 (67) n (%)
WBCs decreased (treatment-related AE), Grade 3/4 ([3]; 100 mg once daily): 2 (33) n (%)
Any AE (treatment-related), All grades ([3]; 125 mg once daily): 5 (83) n (%)
Any AE (treatment-related), Grade 3/4 ([3]; 125 mg once daily): 4 (67) n (%)
Blood creatinine increased (treatment-related AE), All grades ([3]; 125 mg once daily): 0 (0) n (%)
Blood creatinine increased (treatment-related AE), Grade 3/4 ([3]; 125 mg once daily): 0 (0) n (%)
Diarrhea (treatment-related AE), All grades ([3]; 125 mg once daily): 2 (33) n (%)
Diarrhea (treatment-related AE), Grade 3/4 ([3]; 125 mg once daily): 0 (0) n (%)
Fatigue (treatment-related AE), All grades ([3]; 125 mg once daily): 2 (33) n (%)
Fatigue (treatment-related AE), Grade 3/4 ([3]; 125 mg once daily): 0 (0) n (%)
Lymphocytes decreased (treatment-related AE), All grades ([3]; 125 mg once daily): 3 (50) n (%)
Lymphocytes decreased (treatment-related AE), Grade 3/4 ([3]; 125 mg once daily): 2 (33) n (%)
Neutropenia (treatment-related), all grades ([3]; 125 mg once daily): 67%
Neutropenia (treatment-related), grade 3/4 ([3]; 125 mg once daily): 33%
Neutrophils decreased (treatment-related AE), All grades ([3]; 125 mg once daily): 4 (67) n (%)
Neutrophils decreased (treatment-related AE), Grade 3/4 ([3]; 125 mg once daily): 2 (33) n (%)
Platelets decreased (treatment-related AE), All grades ([3]; 125 mg once daily): 2 (33) n (%)
Platelets decreased (treatment-related AE), Grade 3/4 ([3]; 125 mg once daily): 1 (17) n (%)
WBCs decreased (treatment-related AE), All grades ([3]; 125 mg once daily): 5 (83) n (%)
WBCs decreased (treatment-related AE), Grade 3/4 ([3]; 125 mg once daily): 2 (33) n (%)
Grade ≥3 treatment-related non-hematologic AEs ([3]; all cohorts (100 mg, 125 mg, 125 mg + letrozole)): No grade ≥3 treatment‐related non‐hematologic AEs were observed
Deaths ([3]; whole study, 18 patients): No deaths
Antitumor activity when combined with tamoxifen [4]: synergistic antitumor activity
Retinoblastoma protein hyperphosphorylation [4]: inhibition of retinoblastoma protein hyperphosphorylation
Tumor cell growth [4]: arrest tumor cell growth
Dose proportionality of exposure ([5]; 125 mg vs 100 mg, part 1): higher than dose‐proportional exposure
Tmax ([5]; 125 mg, single dose, n = 6, median (range)): 4.0 (3.9–8.0) h
AUC(0-inf) ([5]; human, plasma, oral, 100 mg): 1040 ng·h/mL
Cmax ([5]; human, plasma, oral, 100 mg): 41.4 ng/mL
Tmax ([5]; human, plasma, oral, 100 mg): 5 h
AUC(0-t) ([5]; human, plasma, oral, 100 mg, AUClast, single dose, n = 6): 972 ng·h/mL
AUC(0-t) ([5]; human, plasma, oral, 100 mg, AUCτ (= AUC0–24), 100 mg once daily, multiple doses (day 8 of cycle 1), n = 6): 1280 ng·h/mL
AUC(0-t) ([5]; human, plasma, oral, 100 mg, AUCτ (= AUC0–24), single dose, n = 6): 548 ng·h/mL
half-life ([5]; human, plasma, oral, 100 mg, 100 mg once daily, multiple doses (day 8 of cycle 1), n = 6): 23.8 ± 6.8 h
half-life ([5]; human, plasma, oral, 100 mg, single dose, n = 6): 25.7 ± 5.3 h
AUC(0-inf) ([5]; human, plasma, oral, 125 mg): 2480 ng·h/mL
Tmax ([5]; human, plasma, oral, 125 mg): 4 to 5 h
concentration at 4 h ([5]; human, plasma, oral, 125 mg): 172 ng/mL
AUC(0-t) ([5]; human, plasma, oral, 125 mg, AUClast, single dose, n = 6): 2400 ng·h/mL
AUC(0-t) ([5]; human, plasma, oral, 125 mg, AUCτ (= AUC0–24), 125 mg once daily, multiple doses (day 8 of cycle 1), n = 6): 2840 ng·h/mL
AUC(0-t) ([5]; human, plasma, oral, 125 mg, AUCτ (= AUC0–24), single dose, n = 6): 1320 ng·h/mL
half-life ([5]; human, plasma, oral, 125 mg, 125 mg once daily, multiple doses (day 8 of cycle 1), n = 6): 23.2 ± 7.7 h
half-life ([5]; human, plasma, oral, 125 mg, single dose, n = 6): 23.9 ± 2.7 h
Plasma palbociclib concentration, Predose [Ctrough], geometric mean ([5]; palbociclib 125 mg alone, day 8 of part 1): 72.8 ng/mL
Patients with stable disease (advanced solid tumors; 100 mg, part 1, n = 6): three of six patients
Best response (advanced solid tumors; [7]): Indeterminate
Progression‐free survival (advanced solid tumors; [7]): 29 days
Progression‐free survival (advanced solid tumors; 100 mg, part 1, patient: breast cancer (second listed)): 75 days
Progression‐free survival (advanced solid tumors; 100 mg, part 1, patient: colon cancer): 29 days
Progression‐free survival (advanced solid tumors; 100 mg, part 1, patient: medullary thyroid cancer): 57 days
Progression‐free survival (advanced solid tumors; 100 mg, part 1, patient: ovarian cancer): 121 days
Progression‐free survival (advanced solid tumors; 100 mg, part 1, patient: rectal cancer): 223 days
Patients with stable disease (advanced solid tumors; 125 mg, part 1, n = 6): one of six patients
Progression‐free survival (advanced solid tumors; 125 mg, part 1, patient: acinar cell carcinoma of pancreas): 29 days
Progression‐free survival (advanced solid tumors; 125 mg, part 1, patient: breast cancer): 57 days
Progression‐free survival (advanced solid tumors; 125 mg, part 1, patient: esophageal carcinoma): 280 days
Progression‐free survival (advanced solid tumors; 125 mg, part 1, patient: fibroma): 28 days
Progression‐free survival (advanced solid tumors; 125 mg, part 1, patient: inflammatory myofibroblastic tumor): 28 days
Progression‐free survival (advanced solid tumors; 125 mg, part 1, patient: rectal cancer): 32 days
DCR (objective response or stable disease ≥24 weeks) (advanced solid tumors; 100 or 125 mg, part 1): 17%
Objective responses (CR or PR) (advanced solid tumors; 100 or 125 mg, part 1): not reported
Patients with extended stable disease (≥24 weeks) (advanced solid tumors; part 1, 100- or 125-mg dose (rectal and esophageal cancer)): two patients
Patients with stable disease (advanced solid tumors; part 1 overall (100 and 125 mg, n = 12)): Four patients had stable disease

N#Cc1ccc(C(c2ccc(C#N)cc2)n2cncn2)cc1 [letrozole]
Predose plasma letrozole concentration, geometric mean Ctrough ([6]; letrozole 2.5 mg alone, part 2, day 1 of cycles 2 and 3): 146 ^† ng/mL
Predose plasma letrozole concentration, geometric mean Ctrough ([6]; palbociclib 125 mg + letrozole 2.5 mg, part 2, day 15 of cycles 1 and 2): 131 ^‡ ng/mL
